In patent US7687496B2, “C7-substituted camptothecin analogs” (priority 2007, dated 2010):
Where two headings read alike, the source gives them in different places.

How the values were obtained:
[1] = clinical studies in Japan; cited from earlier work
A2780/DX5 cells = assay: Sulforhodamine B (SRB) cytotoxicity assay in A2780/DX5 cells; assay type: cell-based; conditions: for IC50 Ratio: A2780/DX5 versus A2780/WT; for IC50: Homo sapiens, A2780, read-out: A2780/DX5
Procedure: (§1) Each of the testing conditions used in this study in both A2780/WT (wild-type) and A2780/DX5 cells were repeated in five to fifteen experiments that were performed on separate days. Each experiment consisted of one microtiter plate with at least eight individual assays of a given drug treatment condition on the plate. The sulforhodamine B (SRB) assay was used to assess cytotoxicity and absorbance at 570 nm (A570) in order to calculate the percentage of cell control (or percent cell survival) for the various treatment conditions in the plate wells.
(§2) Roswell Park Memorial Institute (RPMI 1640) medium, fetal bovine serum (FBS), and L-glutamine were purchased from Gibco BRL. Drugs were dissolved in sterile dimethylsulfoxide (DMSO), from American Type Culture Collection (ATCC) for stock solutions (2.5 to 5.0 mM). Subsequent dilutions were made using cell culture medium (prior to adding the drug to cells). SRB was purchased from Sigma and dissolved in 1.0 percent acetic acid. Trichloroacetic acid was purchased from VWR International.
(§3) Cells were manipulated in a Class IIA/B3 Biological Safety Cabinet (Forma Scientific) and maintained at 37° C. in a humidified atmosphere containing 5% CO2 in a water-jacketed cell culture incubator (Forma Scientific). Cells were counted using a Coulter-Z1 counter (Beckman-Coulter). Following drug treatment, plates were washed using a Biomek 2000 station (Beckman) and, following exposure to SRB dye, plates were washed using an automated plate washer (Model EL404, Bio-Tek Instruments). Percentage of control was correlated to A570 values and determined using a Model EL800 plate reader (Bio-Tek Instruments).
(§4) Population doubling times for the two cell lines used in this study encompassed a total of five cell doublings corresponding to approximately 5 days for A2780/WT and A2780/DX5 cells. A2780/WT and A2780/DX5 cells were cultured in RPMI 1640 medium supplemented with 10% fetal bovine serum and 1 mM of L-glutamine. Both cell lines were maintained as monolayered cultures in T-25 or T-75 flasks and then seeded to microtiter plate wells for experiments described herein. Prior to SRB assays, cell viability was monitored by evaluation of microtiter plate wells. Dead cells detach and float while living cells remain attached to the bottom of the cell well.
The sulforhodamine B (SRB) cytotoxicity assay (see, Skehan P, et al., New colorimetric cytotoxicity assay for anticancer-drug screening. J. Natl. Cancer Inst. 82:1107-1112 (1990)) was used to determine the cytotoxic effects of BNP1350, SN-38, topotecan, 9-NH2-CPT, and 9-NO2-CPT on cell growth in vitro. Briefly, after the medium was aspirated from individual plate wells, trichloroacetic acid (100 μL of 10.0% solution) was added to each well, and the plates were incubated at 4° C. for at least 1 hour. The plates were washed five-times with water using an automated microplate washer (Model EL 404, Bio-Tek Instruments), SRB solution (100 μL of 0.4 grams SRB dissolved in 100 mL 1.0 percent acetic acid) was added, and plates remained at room temperature for 15 minutes. The plates were then washed five-times using acetic acid (1.0%), air dried, and bound dye was solubilized in Tris base (150 μL, 10 mM). Plates were agitated (gently) for 5 minutes and the absorbance values of the SRB dye-protein adduct at a 570 nm wavelength (A570) were determined using an automated microtiter plate reader equipped with an A570 filter (Model EL800, BioTek Instruments).

[2] = system: A2780/WT (wild-type) cells; assay: Sulforhodamine B (SRB) cytotoxicity assay in A2780/WT cells; assay type: cell-based; conditions: Homo sapiens
Procedure: as §1, §2, §3
as §4, with “Dead cells detach and float while living cells remain attached to the bottom of the cell well.” left out
The sulforhodamine B (SRB) cytotoxicity assay (see, Skehan P, et al., New colorimetric cytotoxicity assay for anticancer-drug screening. J. Natl. Cancer Inst. 82:1107-1112 (1990)) was used to determine the cytotoxic effects of BNP1350, SN-38, topotecan, 9-NH2-CPT, and 9-NO2-CPT on cell growth in vitro. […] Plates were agitated (gently) for 5 minutes and the absorbance values of the SRB dye-protein adduct at a 570 nm wavelength (A570) were determined using an automated microtiter plate reader equipped with an A570 filter (Model EL800, BioTek Instruments).

[3] = carboxylate form versus lactone form; cited from earlier work
human plasma proteins = assay: Percent of free camptothecin analogs in human plasma (dialysis, HPLC); conditions: 100 nM compound concentrations
Procedure: Stocks of various camptothecin analogs were prepared in DMSO. Phosphate buffer was prepared from analytical grade reagents and regenerated cellulose membranes with 12-14 kD molecular weight cut-off (MWCO) were purchased from Spectrum Laboratories. Samples were incubated 48 hours or longer at room temperature until equilibrium was reached. Experiments to determine the percent of free camptothecin/Karenitecin® analogs were performed in triplicate. Optimum HPLC detection conditions for each camptothecin/Karenitecin® analog were developed using traditional HPLC methods.

[4] = cited from earlier work
[5] = system: advanced malignant melanoma; conditions: fifteen patients, 90-360 mg/m^2 every 2 weeks; cited from earlier work
[6] = system: advanced gastrointestinal cancer; conditions: cited from earlier work
[7] = doses of 20 to 30 mg/m^2; cited from earlier work
[8] = system: panel of over 20 human cancer cell lines
[9] = 5-day course, 15 mg/m^2 × 5, 9 patients treated
[10] = 5-day course, 17 mg/m^2 × 5, 5 patients treated
[11] = 5-day course, 20 mg/m^2 × 5, 10 patients treated
[12] = single-dose method, 110 mg/m^2, 2 patients treated
[13] = single-dose method, 120 mg/m^2, 7 patients treated
[14] = single-dose method, 180 mg/m^2, 9 patients treated
[15] = 5-day course (27 patients total), 4 wks
[16] = 5-day course (27 patients total), 8 wks
[17] = 5-day course (27 patients total), 12 wks
[18] = single-dose method (34 patients total), 3 wks
[19] = single-dose method (34 patients total), 6 wks
[20] = single-dose method (34 patients total), 9 wks
[21] = single-dose method (34 patients total), 12 wks

SMILES: CCc1c2c(nc3ccc(OC(=O)N4CCC(N5CCCCC5)CC4)cc13)-c1cc3c(c(=O)n1C2)COC(=O)[C@]3(O)CC [CPT-11, 7-ethyl-10-[4-(1-piperidino)-1-piperidino]carbonyloxy camptothecin]
- patient deaths directly attributable to drug toxicity [1]: approximately 100 patient deaths

SMILES: CC[C@@]1(O)C(=O)OCc2c1cc1n(c2=O)Cc2c-1nc1ccccc1c2CC[Si](C)(C)CSC(C)=O [Compound 9, thioacetic acid S-({[2-(4-ethyl-4-hydroxy-3,13-dioxo-3,4,12,13-tetrahydro-1H-2-oxa-6,12a-diaza-dibenzo[b,h]fluoren-11-yl)-ethyl]-dimethylsilanyl}-methyl)ester]
- IC50 Ratio (A2780/DX5 cells): 1.94
- IC50 (A2780/DX5 cells): 125 nM
- IC50 ([2]; A2780, read-out: A2780/WT): 64.7 nM

SMILES: CC[C@@](O)(C(=O)O)c1cc2n(c(=O)c1CO)Cc1cc3ccccc3nc1-2 [carboxylate form of CPT]
- reduction of anti-tumor activity [3]: at least 10 fold

SMILES: C=C[Si](C)(C)CCc1c2c(nc3ccccc13)-c1cc3c(c(=O)n1C2)COC(=O)[C@]3(O)CC [Compound 1, 11-(4S)-[2-(dimethylvinylsilanyl)-ethyl]-4-ethyl-4-hydroxy-1,12-dihydro-4H-2-oxa-6,12a-diaza-dibenzo[b,h]fluorene-3,13-dione]
- IC50 Ratio (A2780/DX5 cells): 1.68
- IC50 (A2780/DX5 cells): 21.8 nM
- Percent of Free Camptothecin Analogs in Human Plasma (human plasma proteins): 2%
- IC50 ([2]; SRB assay, A2780/WT cells, read-out: A2780/WT): 13 nM

SMILES: CC[C@@]1(O)C(=O)OCc2c1cc1n(c2=O)Cc2c-1nc1ccccc1c2CC[Si](C)(C)CCCOC(=O)C1CCC1 [Compound 62, Cyclobutanecarboxylic acid 3-{[2-(4-ethyl-4-hydroxy-3,13-dioxo-3,4,12,13-tetrahydro-1H-2-oxa-6,12a-diaza-dibenzo[b,h]fluoren-11-yl)-ethyl]-dimethyl-silanyl}-propyl ester]
- IC50 Ratio (A2780/DX5 cells): 3.77
- IC50 (A2780/DX5 cells): 39.2 nM
- IC50 ([2]; A2780, read-out: A2780/WT): 10.4 nM

SMILES: CC[C@@]1(O)C(=O)OCc2c1cc1n(c2=O)Cc2cc3ccccc3nc2-1 [CPT sodium]
- Cystitis ([4]; 5-day course (P < 0.05)): 48 (P < 0.05) % of 27 Patients
- Number of patients with cystitis ([4]; 5-day course, 11 mg/m^2 × 5, 2 patients treated): 1 patients
- Number of patients with cystitis [4, 9]: 4 patients
- Number of patients with diarrhea [4, 9]: 1 patients
- Number of patients with cystitis [4, 10]: 2 patients
- Number of patients with diarrhea [4, 10]: 4 patients
- Number of patients with cystitis [4, 11]: 6 patients
- Number of patients with diarrhea [4, 11]: 4 patients
- Number of patients with diarrhea ([4]; 5-day course, 22 mg/m^2 × 5, 1 patient treated): 1 patients
- Number of patients with cystitis ([4]; single-dose method, 100 mg/m^2, 6 patients treated): 2 patients
- Number of patients with cystitis [4, 12]: 1 patients
- Number of patients with diarrhea [4, 12]: 1 patients
- Number of patients with cystitis [4, 13]: 2 patients
- Number of patients with diarrhea [4, 13]: 4 patients
- Number of patients with cystitis [4, 14]: 3 patients
- Number of patients with diarrhea [4, 14]: 2 patients
- less pronounced transient tumor regression [5]: three patients
- myelosuppression [5]: 11 patients
- patients with a 50% or greater decrease in tumor diameter [5]: None of the patients
- Objective results: Improved [6, 15]: 1 patients
- Objective results: Stable [6, 15]: 12 patients
- Objective results: Worse [6, 15]: 14 patients
- Objective results: Stable [6, 16]: 7 patients
- Objective results: Worse [6, 16]: 20 patients
- Objective results: Stable [6, 17]: 6 patients
- Objective results: Worse [6, 17]: 21 patients
- patients with evidence of partial objective improvement ([6]; after 2 months (8 or 9 weeks), 61 patients): two of their 61 patients
- Objective results: Improved ([6]; single-dose method (34 patients total), 3 wks after start of therapy): 4 patients
- Objective results: Stable [6, 18]: 17 patients
- Objective results: Worse [6, 18]: 13 patients
- Objective results: Improved [6, 19]: 2 patients
- Objective results: Stable [6, 19]: 11 patients
- Objective results: Worse [6, 19]: 21 patients
- Objective results: Improved [6, 20]: 2 patients
- Objective results: Stable [6, 20]: 8 patients
- Objective results: Worse [6, 20]: 24 patients
- Objective results: Stable [6, 21]: 6 patients
- Objective results: Worse [6, 21]: 28 patients
- dose-limiting bladder toxicity [7]: three patients

SMILES: CC[C@@]1(O)C(=O)OCc2c1cc1n(c2=O)Cc2c-1nc1ccccc1c2CC[Si](C)(C)C [Karenitecin, (4S)-4-ethyl-4-hydroxy-11-[2-(trimethylsilyl)ethyl]-1H-pyrano[3′:4′:6,7]indolizino[1,2-b]quinoline-3,14(4H,12H)-dione]
- antitumor potency compared with Topotecan and SN-38 [8]: significantly more potent antitumor agent than either Topotecan™ or SN-38

SMILES: CC[C@@]1(O)C(=O)OCc2c1cc1n(c2=O)Cc2c-1nc1ccccc1c2CC[Si](C)(C)CCCOC(=O)C1=CCNO1 [Compound 64, 2,3-Dihydro-isoxazole-5-carboxylic acid 3-{[2-(4-ethyl-4-hydroxy-3,13-dioxo-3,4,12,13-tetrahydro-1H-2-oxa-6,12a-diaza-dibenzo[b,h]fluoren-11-yl)-ethyl]-dimethyl-silanyl}-propyl ester]
- IC50 Ratio (A2780/DX5 cells): 4.27
- IC50 (A2780/DX5 cells): 59.8 nM
- IC50 ([2]; A2780, read-out: A2780/WT): 14 nM
